Structures can show the parent of a compound that is named as a salt.
How the values were obtained:
Format in all cases: cell-based
[1] = test system: Klebsiella pneumoniae XNWB 0001; experiment: MIC assay of test compounds combined with imipenem (4 μg/mL); conditions: imipenem 4 μg/mL fixed
Summary of the method: (§1)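 We recorded each combination MIC according to CLSI after culturing plates at 35±2 °C for 16-20 h. The inoculum consisted of colonies suspended in 0.9% NaCl (OD600 0.1-0.15) and diluted 300-fold with 1.1×CAMHB, mixed with compound dilutions and the partner β-lactam.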

[2] = test system: Acinetobacter baumannii XNWB 0007; experiment: as above; conditions: imipenem 4 μg/mL fixed
Summary of the method: as §1

[3] = test system: Pseudomonas aeruginosa XNWB 0008; experiment: as above; conditions: imipenem 4 μg/mL fixed
Summary of the method: as §1

[4] = test system: Klebsiella pneumoniae XNWB 0003; experiment: as above; conditions: imipenem 4 μg/mL fixed
Summary of the method: as §1

[5] = test system: Klebsiella pneumoniae XNWB 0002; experiment: as above; conditions: imipenem 4 μg/mL fixed
Summary of the method: as §1

[6] = test system: Klebsiella pneumoniae XNWB 0006; experiment: as above; conditions: imipenem 4 μg/mL fixed
Summary of the method: as §1

[7] = test system: Klebsiella pneumoniae XNWB 0005; experiment: as above; conditions: imipenem 4 μg/mL fixed
Summary of the method: as §1

[8] = test system: Klebsiella pneumoniae XNWB 0004; experiment: as above; conditions: imipenem 4 μg/mL fixed
Summary of the method: as §1

[9] = test system: Klebsiella pneumoniae XNWB 0001; experiment: MIC assay of test compounds combined with ceftazidime (8 μg/mL); conditions: ceftazidime 8 μg/mL fixed
Summary of the method: as §1

[10] = test system: Acinetobacter baumannii XNWB 0007; experiment: as above; conditions: ceftazidime 8 μg/mL fixed
Summary of the method: as §1

[11] = test system: Pseudomonas aeruginosa XNWB 0008; experiment: as above; conditions: ceftazidime 8 μg/mL fixed
Summary of the method: as §1

[12] = test system: Klebsiella pneumoniae XNWB 0003; experiment: as above; conditions: ceftazidime 8 μg/mL fixed
Summary of the method: as §1

[13] = test system: Klebsiella pneumoniae XNWB 0002; experiment: as above; conditions: ceftazidime 8 μg/mL fixed
Summary of the method: as §1

[14] = test system: Klebsiella pneumoniae XNWB 0006; experiment: as above; conditions: ceftazidime 8 μg/mL fixed
Summary of the method: as §1

[15] = test system: Klebsiella pneumoniae XNWB 0005; experiment: as above; conditions: ceftazidime 8 μg/mL fixed
Summary of the method: as §1

[16] = test system: Klebsiella pneumoniae XNWB 0004; experiment: as above; conditions: ceftazidime 8 μg/mL fixed
Summary of the method: as §1

Row | Structure (SMILES) | The minimum concentration of test compounds combined with imipenem (4 μg/mL) for bacteriostasis [1] | The minimum concentration of test compounds combined with imipenem (4 μg/mL) for bacteriostasis [2] | The minimum concentration of test compounds combined with imipenem (4 μg/mL) for bacteriostasis [3] | The minimum concentration of test compounds combined with imipenem (4 μg/mL) for bacteriostasis [4] | The minimum concentration of test compounds combined with imipenem (4 μg/mL) for bacteriostasis [5] | The minimum concentration of test compounds combined with imipenem (4 μg/mL) for bacteriostasis [6] | The minimum concentration of test compounds combined with imipenem (4 μg/mL) for bacteriostasis [7] | The minimum concentration of test compounds combined with imipenem (4 μg/mL) for bacteriostasis [8] | The minimum concentration of test compounds combined with ceftazidime (8 μg/mL) for bacteriostasis [9] | The minimum concentration of test compounds combined with ceftazidime (8 μg/mL) for bacteriostasis [10] | The minimum concentration of test compounds combined with ceftazidime (8 μg/mL) for bacteriostasis [11] | The minimum concentration of test compounds combined with ceftazidime (8 μg/mL) for bacteriostasis [12] | The minimum concentration of test compounds combined with ceftazidime (8 μg/mL) for bacteriostasis [13] | The minimum concentration of test compounds combined with ceftazidime (8 μg/mL) for bacteriostasis [14] | The minimum concentration of test compounds combined with ceftazidime (8 μg/mL) for bacteriostasis [15] | The minimum concentration of test compounds combined with ceftazidime (8 μg/mL) for bacteriostasis [16]
1 | N=C1NC[C@@H](c2nnc([C@@H]3CC4(CC4)[C@@H]4CN3C(=O)N4OS(=O)(=O)O)o2)N1 [Example 55, (1R,4S)-4-(5-((S)-2-iminoimidazolidin-4-yl)-1,3,4-oxadiazol-2-yl)-6-oxo-5,7-diazaspiro [bicyclo[3.2.1]octane-2,1′-cyclopropan]-7-yl sulfate] | A (A: <8 μg/mL) | A (A: <8 μg/mL) | A (A: <8 μg/mL) | A (A: <8 μg/mL) | A (A: <8 μg/mL) | A (A: <8 μg/mL) | A (A: <8 μg/mL) | A (A: <8 μg/mL) | A (A: <8 μg/mL) | C (C: 16-128 μg/mL) | B (B: 8-16 μg/mL) | A (A: <8 μg/mL) | A (A: <8 μg/mL) | A (A: <8 μg/mL) | A (A: <8 μg/mL) | A (A: <8 μg/mL)
2 | NC(=O)[C@@H]1CC[C@@H]2CN1C(=O)N2OS(=O)(=O)O [Avibactam, reference compound] | A (A: <8 μg/mL) | C (C: 16-128 μg/mL) | A (A: <8 μg/mL) | A (A: <8 μg/mL) | A (A: <8 μg/mL) | A (A: <8 μg/mL) | A (A: <8 μg/mL) | A (A: <8 μg/mL) | A (A: <8 μg/mL) | C (C: 16-128 μg/mL) | A (A: <8 μg/mL) | A (A: <8 μg/mL) | A (A: <8 μg/mL) | A (A: <8 μg/mL) | A (A: <8 μg/mL) | A (A: <8 μg/mL)
3 | N=C1NCC(c2nnc([C@@H]3CC4(CC4)[C@@H]4CN3C(=O)N4OS(=O)(=O)O)o2)N1 (stereo partly drawn) [Example 8, (1R,4S)-4-(5-(2-iminoimidazolidin-4-yl)-1,3,4-oxadiazol-2-yl)-6-oxo-5,7-diazaspiro [bicyclo[3.2.1]octane-2,1′-cyclopropan]-7-yl sulfate] | A (A: <8 μg/mL) | A (A: <8 μg/mL) | A (A: <8 μg/mL) | A (A: <8 μg/mL) | A (A: <8 μg/mL) | A (A: <8 μg/mL) | A (A: <8 μg/mL) | A (A: <8 μg/mL) | A (A: <8 μg/mL) | C (C: 16-128 μg/mL) | B (B: 8-16 μg/mL) | A (A: <8 μg/mL) | A (A: <8 μg/mL) | A (A: <8 μg/mL) | A (A: <8 μg/mL) | A (A: <8 μg/mL)
4 | N[C@H]1C[C@H](Cc2nnc([C@@H]3CC4(CC4)[C@@H]4CN3C(=O)N4OS(=O)(=O)O)o2)C1 [Example 20, (1R,4S)-4-(5-(((1S,3S)-3-aminocyclobutyl)methyl)-1,3,4-oxadiazol-2-yl)-6-oxo-5,7-diazaspiro[bicyclo[3.2.1]octane-2,1′-cyclopropan]-7-yl sulfate] | A (A: <8 μg/mL) | B (B: 8-16 μg/mL) | A (A: <8 μg/mL) | A (A: <8 μg/mL) | A (A: <8 μg/mL) | A (A: <8 μg/mL) | A (A: <8 μg/mL) | A (A: <8 μg/mL) | A (A: <8 μg/mL) | C (C: 16-128 μg/mL) | B (B: 8-16 μg/mL) | A (A: <8 μg/mL) | A (A: <8 μg/mL) | A (A: <8 μg/mL) | A (A: <8 μg/mL) | A (A: <8 μg/mL)
5 | O=C1N2C[C@H](N1OS(=O)(=O)O)C1(CC1)C[C@H]2c1cc(CNC2CNC2)on1 [Example 48, (1R,4S)-4-(5-((azetidin-3-ylamino)methyl)isoxazol-3-yl)-6-oxo-5,7-diazaspiro[bicycle [3.2.1]octane-2,1′-cyclopropan]-7-yl sulfate] | A (A: <8 μg/mL) | C (C: 16-128 μg/mL) | A (A: <8 μg/mL) | A (A: <8 μg/mL) | A (A: <8 μg/mL) | A (A: <8 μg/mL) | A (A: <8 μg/mL) | A (A: <8 μg/mL) | A (A: <8 μg/mL) | C (C: 16-128 μg/mL) | B (B: 8-16 μg/mL) | A (A: <8 μg/mL) | A (A: <8 μg/mL) | A (A: <8 μg/mL) | A (A: <8 μg/mL) | B (B: 8-16 μg/mL)
